Tests used:
Assay type in all cases: in vivo
[1] = system: barnyardgrass (Echinochloa crus-galli); assay: Test A preemergence, barnyardgrass; details: Preemergence, 0 to 100 scale (0 no effect, 100 complete control)
How it was run: (§1)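 Planted seeds in loam soil mixed with sand; sprayed soil directly (pre). Grew seedlings to one- to two-leaf stage, 2–10 cm; sprayed foliage (post). Held in greenhouse ~10 days. Rated injury visually vs untreated controls, 0–100.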

kochia (Kochia scoparia) [2] = assay: Test A preemergence, kochia; details: Preemergence, 0 to 100 scale (0 no effect, 100 complete control)
How it was run: as §1

[3] = system: ragweed (common ragweed, Ambrosia elatior); assay: Test A preemergence, ragweed; details: Preemergence, 0 to 100 scale (0 no effect, 100 complete control)
How it was run: as §1

[4] = system: ryegrass, Italian (Italian ryegrass, Lolium multiflorum); assay: Test A preemergence, Italian ryegrass; details: Preemergence, 0 to 100 scale (0 no effect, 100 complete control)
How it was run: as §1

[5] = system: foxtail, giant (giant foxtail, Setaria faberii); assay: Test A preemergence, giant foxtail; details: Preemergence, 0 to 100 scale (0 no effect, 100 complete control)
How it was run: as §1

[6] = system: pigweed (Amaranthus retroflexus); assay: Test A preemergence, pigweed; details: Preemergence, 0 to 100 scale (0 no effect, 100 complete control)
How it was run: as §1

[7] = system: barnyardgrass (Echinochloa crus-galli); assay: Test A postemergence, barnyardgrass
How it was run: as §1

kochia (Kochia scoparia) [8] = assay: Test A postemergence, kochia
How it was run: as §1

[9] = system: ragweed (common ragweed, Ambrosia elatior); assay: Test A postemergence, ragweed
How it was run: as §1

[10] = system: ryegrass, Italian (Italian ryegrass, Lolium multiflorum); assay: Test A postemergence, Italian ryegrass
How it was run: as §1

[11] = system: foxtail, giant (giant foxtail, Setaria faberii); assay: Test A postemergence, giant foxtail
How it was run: as §1

[12] = system: pigweed (Amaranthus retroflexus); assay: Test A postemergence, pigweed
How it was run: as §1

[13] = system: wheat (Triticum aestivum); assay: Test A postemergence, wheat
How it was run: as §1

corn (Zea mays) = assay: Test A postemergence, corn
How it was run: as §1

[14] = system: blackgrass (Alopecurus myosuroides); assay: Test A postemergence, blackgrass
How it was run: as §1

[15] = system: galium (catchweed bedstraw, Galium aparine); assay: Test A postemergence, galium
How it was run: as §1

rice (Oryza sativa) = assay: Test B flooded paddy test, rice; details: 250 g ai/ha, Flood; visual rating after 13 to 15 days; scale 0 to 100, 0 is no effect, 100 is complete control
How it was run: (§2)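 Seedlings at the 2-leaf stage are flooded to 3 cm and treated via the paddy water. Greenhouse plants are compared with controls after 13 to 15 days and given a 0 (no effect) to 100 (complete control) rating.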

[16] = system: sedge, umbrella (small-flower umbrella sedge, Cyperus difformis); assay: Test B flooded paddy test, umbrella sedge; details: 250 g ai/ha, Flood; visual rating after 13 to 15 days; scale 0 to 100, 0 is no effect, 100 is complete control
How it was run: as §2

[17] = system: ducksalad (Heteranthera limosa); assay: Test B flooded paddy test, ducksalad; details: 250 g ai/ha, Flood; visual rating after 13 to 15 days; scale 0 to 100, 0 is no effect, 100 is complete control
How it was run: as §2

[18] = system: barnyardgrass (Echinochloa crus-galli); assay: Test B flooded paddy test, barnyardgrass; details: 250 g ai/ha, Flood; visual rating after 13 to 15 days; scale 0 to 100, 0 is no effect, 100 is complete control
How it was run: as §2

[19] = 125 g ai/ha, postemergence, 0 to 100 scale, 0 is no effect, 100 is complete control, approximately 10 days
[20] = Postemergence, 31 g ai/ha, 0 to 100 scale (0 no effect, 100 complete control)

Structure (SMILES)	Plant response rating, Barnyardgrass ([1]; 31 g ai/ha)	Plant response rating, Barnyardgrass ([1]; 125 g ai/ha)	Plant response rating, Kochia (kochia (Kochia scoparia) [2]; 31 g ai/ha)	Plant response rating, Kochia (kochia (Kochia scoparia) [2]; 125 g ai/ha)	Plant response rating, Ragweed ([3]; 31 g ai/ha)	Plant response rating, Ragweed ([3]; 125 g ai/ha)	Plant response rating, Ryegrass, Italian ([4]; 31 g ai/ha)	Plant response rating, Ryegrass, Italian ([4]; 125 g ai/ha)	Plant response rating, Foxtail, Giant ([5]; 31 g ai/ha)	Plant response rating, Foxtail, Giant ([5]; 125 g ai/ha)	Plant response rating, Pigweed ([6]; 31 g ai/ha)	Plant response rating, Pigweed ([6]; 125 g ai/ha)	Plant response rating, Barnyardgrass [7, 19]	Plant response rating, Barnyardgrass [7, 20]	Plant response rating, Kochia (kochia (Kochia scoparia) [8]; [19])	Plant response rating, Kochia (kochia (Kochia scoparia) [8]; [20])	Plant response rating, Ragweed [9, 19]	Plant response rating, Ragweed [9, 20]	Plant response rating, Ryegrass, Italian [10, 19]	Plant response rating, Ryegrass, Italian [10, 20]	also measured
Cc1cccc(Oc2ncc(Cl)cn2)c1OCCCC#N [Compound 70]	0	70	0	20	0	0	0	0	0	30	0	50	30	0	30	20	20	0	0	0	Plant response rating, Foxtail, Giant [11, 19]: 0; Plant response rating, Foxtail, Giant [11, 20]: 0; Plant response rating, Pigweed [12, 19]: 40; Plant response rating, Pigweed [12, 20]: 20; Plant response rating, Wheat [13, 19]: 0; Plant response rating, Wheat [13, 20]: 0; Plant response rating, Corn (corn (Zea mays); [19]): 20; Plant response rating, Corn (corn (Zea mays); [20]): 0; Plant response rating, Blackgrass [14, 19]: 0; Plant response rating, Blackgrass [14, 20]: 0; Plant response rating, Galium [15, 19]: 20; Plant response rating, Galium [15, 20]: 0; Plant response rating, Rice (rice (Oryza sativa)): 0; Plant response rating, Sedge, Umbrella [16]: 50; Plant response rating, Ducksalad [17]: 70; Plant response rating, Barnyardgrass [18]: 0
C#Cc1cccc(Oc2ncc(Cl)cn2)c1OCCCF [Compound 71]	0	0	0	0	0	0	0	0	0	0	0	0	0	0	0	0	0	0	0	0	Plant response rating, Foxtail, Giant [11, 19]: 0; Plant response rating, Foxtail, Giant [11, 20]: 0; Plant response rating, Pigweed [12, 19]: 0; Plant response rating, Pigweed [12, 20]: 0; Plant response rating, Wheat [13, 19]: 0; Plant response rating, Wheat [13, 20]: 0; Plant response rating, Corn (corn (Zea mays); [19]): 0; Plant response rating, Corn (corn (Zea mays); [20]): 0; Plant response rating, Blackgrass [14, 19]: 0; Plant response rating, Blackgrass [14, 20]: 0; Plant response rating, Galium [15, 19]: 0; Plant response rating, Galium [15, 20]: 0; Plant response rating, Rice (rice (Oryza sativa)): 0; Plant response rating, Sedge, Umbrella [16]: 0; Plant response rating, Ducksalad [17]: 0; Plant response rating, Barnyardgrass [18]: 0
N#Cc1cccc(Oc2ncc(Cl)cn2)c1OCCCC(F)(F)F [Compound 72]	10	80	0	10	0	0	0	20	10	90	0	60	30	10	70	30	10	0	10	0	Plant response rating, Foxtail, Giant [11, 19]: 40; Plant response rating, Foxtail, Giant [11, 20]: 10; Plant response rating, Pigweed [12, 19]: 60; Plant response rating, Pigweed [12, 20]: 30; Plant response rating, Wheat [13, 19]: 0; Plant response rating, Wheat [13, 20]: 0; Plant response rating, Corn (corn (Zea mays); [19]): 20; Plant response rating, Corn (corn (Zea mays); [20]): 10; Plant response rating, Blackgrass [14, 19]: 20; Plant response rating, Blackgrass [14, 20]: 0; Plant response rating, Galium [15, 19]: 60; Plant response rating, Galium [15, 20]: 20; Plant response rating, Rice (rice (Oryza sativa)): 0; Plant response rating, Sedge, Umbrella [16]: 90; Plant response rating, Ducksalad [17]: 100; Plant response rating, Barnyardgrass [18]: 25
O=C(COc1c(Br)cccc1Oc1ncc(Cl)cn1)C(F)(F)C(F)(F)F [Compound 73]	0	0	0	0	0	0	0	0	0	0	40	50	10	0	50	0	0	0	0	0	Plant response rating, Foxtail, Giant [11, 19]: 10; Plant response rating, Foxtail, Giant [11, 20]: 0; Plant response rating, Pigweed [12, 19]: 60; Plant response rating, Pigweed [12, 20]: 30; Plant response rating, Wheat [13, 19]: 0; Plant response rating, Wheat [13, 20]: 0; Plant response rating, Corn (corn (Zea mays); [19]): 10; Plant response rating, Corn (corn (Zea mays); [20]): 0; Plant response rating, Blackgrass [14, 19]: 20; Plant response rating, Blackgrass [14, 20]: 0; Plant response rating, Galium [15, 19]: 40; Plant response rating, Galium [15, 20]: 10; Plant response rating, Rice (rice (Oryza sativa)): 0; Plant response rating, Sedge, Umbrella [16]: 0; Plant response rating, Ducksalad [17]: 0; Plant response rating, Barnyardgrass [18]: 0
